Measurements: patent US9745335B2 (Blirt S.A., priority 2012, dated 2017)

Tests used:
Human erythrocytes = assay: hemotoxicity determination (hemolytic activity); format: cell-based
Summary of the method: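 Human erythrocytes (2×10^7/ml in saline) were incubated with serially diluted compound for 30 min at 37 °C and then centrifuged. Released haemoglobin was read at A540 against a 0.1% Triton X-100 full-lysis control. EH50 is the interpolated concentration giving 50% of the control A540.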

[1] = tested on: Candida parapsilosis DSM 5784; assay: antifungal activity in vitro, broader spectrum; format: cell-based
Description: (§1) For the determination of antifungal activity in vitro we used method of serial dilution in buffered medium RPMI 1640, pH 7.0, in a 96-wells microplates, according to the standard procedure (National Committee for Clinical Laboratory Standards. Reference method for broth dilution antifungal susceptibility testing of yeast, approved standard, 2nd ed. M27-A2 vol. 22 Wayne, Pa., 2002). The optical density of cells suspension was measured using a microplates reader (Victor^3, Perkin-Elmer) at the wavelength λ=531 nm (A531). On the basis of obtained results the diagrams of relation between A531 values and concentration of examined compound were made.
(§2) Obtained results are presented below in tables 2A and 2B.

[2] = tested on: Candida pseudotropicalis KKP 324; assay: antifungal activity in vitro, broader spectrum; format: cell-based
Description: as §1, §2

[3] = tested on: Trichoderma viride LOCK E159; assay: antifungal activity in vitro, broader spectrum; format: cell-based
Description: as §1, §2

[4] = tested on: Candida quilliermondii DSM 11947; assay: antifungal activity in vitro, broader spectrum; format: cell-based
Description: as §1, §2

[5] = tested on: Candida stellatoidea CBS 1905; assay: antifungal activity in vitro, broader spectrum; format: cell-based
Description: as §1, §2

Candida albicans SC 5314 = assay: antifungal activity in vitro, broader spectrum; format: cell-based
Description: as §1, §2

Candida arborea KKP 319 = assay: antifungal activity in vitro, broader spectrum; format: cell-based
Description: as §1, §2

[6] = tested on: Aspergillus niger LOCK E201; assay: antifungal activity in vitro, broader spectrum; format: cell-based
Description: as §1, §2

[7] = tested on: Candida lipolytica KKP 322; assay: antifungal activity in vitro, broader spectrum; format: cell-based
Description: as §1, §2

[8] = tested on: Candida dubliniensis CBS 7987; assay: antifungal activity in vitro, broader spectrum; format: cell-based
Description: as §1, §2

[9] = tested on: Candida lusitaniae DSM 70102; assay: antifungal activity in vitro, serial dilution in RPMI 1640; format: cell-based
Summary of the method: (§3)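 Broth serial dilution was run in buffered RPMI 1640, pH 7.0, per […] M27-A2. Growth was read as optical density at 531 nm (A531) and plotted against compound concentration.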

[10] = tested on: Candida albicans ATCC 10231; assay: as above; format: cell-based
Summary of the method: as §3

Candida krusei DSM 6128 = assay: as above; format: cell-based
Summary of the method: as §3

[11] = tested on: Candida tropicalis KKP 334; assay: as above; format: cell-based
Summary of the method: as §3

[12] = tested on: Saccharomyces cerevisiae ATCC 9763; assay: as above; format: cell-based; details: RPMI 1640, pH 7.0; for Antifungal activity IC50: Saccharomyces cerevisiae ATCC 9763 (first head over MIC and IC50); for Antifungal activity MIC: Saccharomyces cerevisiae ATCC 9763
Summary of the method: as §3

[13] = tested on: Candida glabrata DSM 11226; assay: as above; format: cell-based
Summary of the method: as §3

LLC-PK1 cells = assay: cytotoxic activity against mammalian cells in tissue culture (MTT); format: cell-based, pig
[14] = tested on: Candida albicans clinical strain Gu4; assay: antifungal activity against MDR fungal strains and parents; format: cell-based; details: C. albicans Gu4, fluconazole sensitive, parent strain for Gu5
Description: as §1

[15] = tested on: Candida albicans clinical strain F5 (CaMdr1p); assay: as above; format: cell-based; details: C. albicans F5 (CaMdr1p), fluconazole-resistant
Description: as §1

[16] = tested on: Candida albicans clinical strain B4 (CaMdr1p); assay: as above; format: cell-based; details: C. albicans B4 (CaMdr1p), fluconazole-resistant
Description: as §1

[17] = tested on: Candida albicans clinical strain Gu5 (CaCdr1p, CaCdr2p); assay: as above; format: cell-based; details: C. albicans Gu5 (CaCdr1p, CaCdr2p), fluconazole-resistant
Description: as §1

[18] = tested on: Candida albicans strain STY31; assay: as above; format: cell-based; details: C. albicans STY31, 5674 derivative, deletion of CDR1 and CDR2
Description: as §1

[19] = tested on: Candida albicans strain STY7 (CaCdr1p); assay: as above; format: cell-based; details: C. albicans STY7 (CaCdr1p), 5674 derivative, deletion of CDR2
Description: as §1

[20] = tested on: Candida albicans clinical strain B3; assay: as above; format: cell-based; details: C. albicans B3, fluconazole sensitive, parent strain for B4
Description: as §1

[21] = tested on: Candida albicans strain 5674 (CaCdr1p, CaCdr2p); assay: as above; format: cell-based; details: C. albicans 5674 (CaCdr1p, CaCdr2p)
Description: as §1

[22] = tested on: Candida albicans clinical strain F2; assay: as above; format: cell-based; details: C. albicans F2, fluconazole sensitive, parent strain for F5
Description: as §1

HepG2 cells = assay: cytotoxic activity against mammalian cells in tissue culture (MTT); format: cell-based, human
CCRF-CEM cells = assay: as above; format: cell-based, human

Molecule: C[C@@H]1[C@H](O)[C@@H](C)/C=C/C=C/C=C/C=C/C=C/C=C/C=C/[C@H](O[C@@H]2O[C@H](C)[C@@H](O)[C@H](NC(=S)NCCN3CCCCC3)[C@@H]2O)C[C@@H]2O[C@](O)(C[C@@H](O)C[C@@H](O)[C@H](O)CC[C@@H](O)C[C@@H](O)CC(=O)O[C@H]1C)C[C@H](O)[C@H]2C(=O)O [Compound A22, N-{[3-(2-piperidin-1-yl)ethyl]thioureidyl}amphotericin B]
- Hemotoxi EH50 (Human erythrocytes): >100 µg/mL
- Antifungal activity MIC [1]: 2 µg/mL
- Antifungal activity MIC [2]: 2 µg/mL
- Antifungal activity MIC [3]: 2 µg/mL
- Antifungal activity MIC [4]: 1 µg/mL
- Antifungal activity MIC [5]: 1 µg/mL
- Antifungal activity MIC (Candida albicans SC 5314): 2 µg/mL
- Antifungal activity MIC (Candida arborea KKP 319): 2 µg/mL
- Antifungal activity MIC [6]: 2 µg/mL
- Antifungal activity MIC [7]: 1 µg/mL
- Antifungal activity MIC [8]: 1 µg/mL
- Antifungal activity MIC [9]: 1 µg/mL
- Antifungal activity MIC [10]: 1 µg/mL
- Antifungal activity MIC (Candida krusei DSM 6128): 2 µg/mL
- Antifungal activity MIC [11]: 1 µg/mL
- Antifungal activity IC50 [12]: 0.71 µg/mL
- Antifungal activity MIC [12]: 1 µg/mL
- Antifungal activity MIC [13]: 4 µg/mL
- IC50 (cytotoxic activity) (LLC-PK1 cells): >100 µg/mL
- Antifungal activity MIC [14]: 0.25 µg/mL
- Antifungal activity MIC [15]: 8 µg/mL
- Antifungal activity MIC [16]: 4 µg/mL
- Antifungal activity MIC [17]: 2 µg/mL
- Antifungal activity MIC [18]: 2 µg/mL
- Antifungal activity MIC [19]: 2 µg/mL
- Antifungal activity MIC [20]: 0.25 µg/mL
- Antifungal activity MIC [21]: 1 µg/mL
- Antifungal activity MIC [22]: 4 µg/mL
- IC50 (cytotoxic activity) (HepG2 cells): >100 µg/mL
- IC50 (cytotoxic activity) (CCRF-CEM cells): >100 µg/mL

Molecule: N-(L-N,N-diethylphenylalanyl)amphotericin B [Compound A42]
- Hemotoxi EH50 (Human erythrocytes): >100 µg/mL
- Antifungal activity MIC [1]: 4 µg/mL
- Antifungal activity MIC [2]: 4 µg/mL
- Antifungal activity MIC [3]: 2 µg/mL
- Antifungal activity MIC [4]: 4 µg/mL
- Antifungal activity MIC [5]: 4 µg/mL
- Antifungal activity MIC (Candida albicans SC 5314): 4 µg/mL
- Antifungal activity MIC (Candida arborea KKP 319): 4 µg/mL
- Antifungal activity MIC [6]: 1 µg/mL
- Antifungal activity MIC [7]: 4 µg/mL
- Antifungal activity MIC [8]: 2 µg/mL
- Antifungal activity MIC [9]: 4 µg/mL
- Antifungal activity MIC [10]: 4 µg/mL
- Antifungal activity MIC (Candida krusei DSM 6128): 8 µg/mL
- Antifungal activity MIC [11]: 4 µg/mL
- Antifungal activity IC50 [12]: 2.75 µg/mL
- Antifungal activity MIC [12]: 4 µg/mL
- Antifungal activity MIC [13]: 8 µg/mL
- IC50 (cytotoxic activity) (LLC-PK1 cells): >100 µg/mL
- Antifungal activity MIC [14]: 2 µg/mL
- Antifungal activity MIC [15]: 2 µg/mL
- Antifungal activity MIC [16]: 8 µg/mL
- Antifungal activity MIC [17]: 4 µg/mL
- Antifungal activity MIC [18]: 4 µg/mL
- Antifungal activity MIC [19]: 4 µg/mL
- Antifungal activity MIC [20]: 2 µg/mL
- Antifungal activity MIC [21]: 4 µg/mL
- Antifungal activity MIC [22]: 1 µg/mL
- IC50 (cytotoxic activity) (HepG2 cells): >100 µg/mL
- IC50 (cytotoxic activity) (CCRF-CEM cells): >100 µg/mL

Molecule: C[C@@H]1[C@H](O)[C@@H](C)/C=C/C=C/C=C/C=C/C=C/C=C/C=C/[C@H](O[C@@H]2O[C@H](C)[C@@H](O)[C@H](NC(=O)[C@H](N)c3ccccc3)[C@@H]2O)C[C@@H]2O[C@](O)(C[C@@H](O)C[C@@H](O)[C@H](O)CC[C@@H](O)C[C@@H](O)CC(=O)O[C@H]1C)C[C@H](O)[C@H]2C(=O)O [Compound A41, N-D-phenylglycylamphotericin B]
- Hemotoxi EH50 (Human erythrocytes): >100 µg/mL
- Antifungal activity MIC [1]: 2 µg/mL
- Antifungal activity MIC [2]: 2 µg/mL
- Antifungal activity MIC [3]: 4 µg/mL
- Antifungal activity MIC [4]: 1 µg/mL
- Antifungal activity MIC [5]: 2 µg/mL
- Antifungal activity MIC (Candida albicans SC 5314): 1 µg/mL
- Antifungal activity MIC (Candida arborea KKP 319): 4 µg/mL
- Antifungal activity MIC [6]: 2 µg/mL
- Antifungal activity MIC [7]: 2 µg/mL
- Antifungal activity MIC [8]: 1 µg/mL
- Antifungal activity MIC [9]: 2 µg/mL
- Antifungal activity MIC [10]: 2 µg/mL
- Antifungal activity MIC (Candida krusei DSM 6128): 4 µg/mL
- Antifungal activity MIC [11]: 4 µg/mL
- Antifungal activity IC50 [12]: 1.46 µg/mL
- Antifungal activity MIC [12]: 4 µg/mL
- Antifungal activity MIC [13]: 4 µg/mL
- IC50 (cytotoxic activity) (LLC-PK1 cells): >100 µg/mL
- Antifungal activity MIC [14]: 1 µg/mL
- Antifungal activity MIC [15]: 4 µg/mL
- Antifungal activity MIC [16]: 1 µg/mL
- Antifungal activity MIC [17]: 1 µg/mL
- Antifungal activity MIC [18]: 1 µg/mL
- Antifungal activity MIC [19]: 1 µg/mL
- Antifungal activity MIC [20]: 1 µg/mL
- Antifungal activity MIC [21]: 1 µg/mL
- Antifungal activity MIC [22]: 2 µg/mL
- IC50 (cytotoxic activity) (HepG2 cells): >100 µg/mL
- IC50 (cytotoxic activity) (CCRF-CEM cells): >100 µg/mL
